The source of these data is PMC6476959, “Novel 3,4-Dihydroisocoumarins Inhibit Human P-gp and BCRP in Multidrug Resistant Tumors and Demonstrate Substrate Inhibition of Yeast Pdr5” (Frontiers in Pharmacology, 2019).

Where “and” joins values, the source holds several entries; their conditions need not be identical. Equal entries are not always repeated. Entries after “also recorded” stand apart in the source; their conditions may differ.

In data set [1] the target is T1, Pdr5 (Saccharomyces cerevisiae, UniProt P33302).
T1 construct: effect on (A) the transport activity of Pdr5 WT and (B) their effect on the ATPase activity; made in house; host or cells: S. cerevisiae YRE1001 (pdr1-3 background), isolated plasma membranes
T1 sequence (P33302 whole entry): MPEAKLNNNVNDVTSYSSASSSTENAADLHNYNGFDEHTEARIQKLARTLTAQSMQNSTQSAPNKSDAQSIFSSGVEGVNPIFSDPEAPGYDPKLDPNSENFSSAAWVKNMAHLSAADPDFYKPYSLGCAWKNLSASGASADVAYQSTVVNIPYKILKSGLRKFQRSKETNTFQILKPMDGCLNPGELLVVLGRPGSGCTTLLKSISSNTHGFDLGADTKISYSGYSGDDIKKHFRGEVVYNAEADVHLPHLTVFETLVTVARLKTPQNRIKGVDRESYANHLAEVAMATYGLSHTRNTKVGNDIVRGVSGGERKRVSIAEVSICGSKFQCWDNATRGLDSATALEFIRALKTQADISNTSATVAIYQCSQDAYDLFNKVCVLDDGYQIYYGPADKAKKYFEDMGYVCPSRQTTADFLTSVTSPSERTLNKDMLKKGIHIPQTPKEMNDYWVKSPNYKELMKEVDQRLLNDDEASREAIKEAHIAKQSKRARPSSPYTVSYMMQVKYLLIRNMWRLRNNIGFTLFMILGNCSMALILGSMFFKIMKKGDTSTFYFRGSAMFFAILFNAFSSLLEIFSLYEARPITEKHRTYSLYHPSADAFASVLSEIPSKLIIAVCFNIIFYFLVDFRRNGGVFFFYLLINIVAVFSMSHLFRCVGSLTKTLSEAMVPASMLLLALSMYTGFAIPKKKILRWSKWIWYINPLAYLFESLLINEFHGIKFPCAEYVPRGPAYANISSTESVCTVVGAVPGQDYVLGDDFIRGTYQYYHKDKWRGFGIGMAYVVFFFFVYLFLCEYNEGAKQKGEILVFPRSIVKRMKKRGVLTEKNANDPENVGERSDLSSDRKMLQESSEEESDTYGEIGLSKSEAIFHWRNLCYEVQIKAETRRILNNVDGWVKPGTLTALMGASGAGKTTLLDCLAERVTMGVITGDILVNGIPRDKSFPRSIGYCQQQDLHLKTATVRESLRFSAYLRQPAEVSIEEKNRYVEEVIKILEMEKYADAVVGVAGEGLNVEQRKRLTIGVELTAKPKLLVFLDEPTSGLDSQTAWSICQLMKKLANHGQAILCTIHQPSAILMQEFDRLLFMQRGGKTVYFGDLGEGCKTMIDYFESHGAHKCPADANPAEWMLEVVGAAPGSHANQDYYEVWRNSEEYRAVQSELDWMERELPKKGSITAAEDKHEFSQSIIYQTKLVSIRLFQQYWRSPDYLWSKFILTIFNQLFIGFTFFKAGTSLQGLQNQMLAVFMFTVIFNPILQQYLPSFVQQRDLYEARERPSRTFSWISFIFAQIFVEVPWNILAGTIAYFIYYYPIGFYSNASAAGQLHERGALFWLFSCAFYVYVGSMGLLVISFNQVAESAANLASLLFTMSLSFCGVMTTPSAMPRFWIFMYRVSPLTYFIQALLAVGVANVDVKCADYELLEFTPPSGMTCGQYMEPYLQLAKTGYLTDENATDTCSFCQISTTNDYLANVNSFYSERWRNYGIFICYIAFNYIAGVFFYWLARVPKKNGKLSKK
Nature of the data set: Pdr5 ATPase assay (oligomycin-sensitive) in plasma membrane preparations. The following applies: highest concentrations (10 mM), in comparison to Pdr5 WT in the absence of any compound. It is filed as biochemical. As to the method: (§1) Saccharomyces cerevisiae cells expressing Pdr5 WT or the E1036Q (EQ) mutant were cultured to an OD600 of 1.5 in YPD-media at 25°C. The nitrogen source was replenished by addition of a 10th volume of 5x YP (50 g/l yeast extract, 100 g/l peptone). The cells were grown to an OD of 3.5 and harvested (5000 ×g at 4°C for 15 min). The isolation of Pdr5 containing PMs was performed as described ([Kolaczkowski et al., 1996]; [Ernst et al., 2008]).
Oligomycin (OM)-sensitive ATPase activity was measured from 0.8 μg PM containing Pdr5 incubated with 2 mM ATP, 5 mM MgCl2 in 270 mM TRIS-glycine buffer (pH 9.5) and 2.5 μl of the test compounds or DMSO as a control in a total volume of 100 μl. To reduce the background activities, 0.2 mM ammonium molybdate, 10 mM NaN3 and 50 mM KNO3, respectively, were added ([Dufour et al., 1988]; [Goffeau and Dufour, 1988]). In a second assay, OM (20 μg/ml) was added to an otherwise identical setup. After incubation at 30°C for 20 min, the reaction was stopped by adding 25 μl of the reaction to 175 μl 40 mM H2SO4. The amount of released inorganic phosphate was determined by a colometric assay in 96-well plates ([Goffeau and Dufour, 1988]; [Decottignies et al., 1994]; [Wada et al., 2002]). The difference of both assays ( ± OM) corresponds to the specific ATPase activity of Pdr5 ([Ernst et al., 2008]).

In data set [2] the test system is A549 cells. The data set is described as follows: CellTiter-Glo cell viability assay (cytotoxicity), A549. It is filed as cell-based, human. Particulars: Homo sapiens, A549; 48 h, mean ± SEM. As to the method: (§2) The human lung adenocarcinoma cell line A549 was cultured in DMEM medium supplemented with 10% fetal bovine serum (FBS), 100 U/mL penicillin and 100 μg/mL streptomycin. P-gp-expressing human colon adenocarcinoma cells HCT-15 were cultured in RPMI 1640 medium supplemented with 10% FBS, 100 U/mL penicillin and 100 μg/mL streptomycin. BCRP-expressing MCF-7/MX human breast adenocarcinoma cells were cultured in DMEM medium supplemented with 10% FBS, 100 U/mL penicillin and 100 μg/mL streptomycin. MRP1-expressing H69AR human small cell lung cancer cells were cultured in RPMI 1640 medium (ATCC modification) supplemented with 20% FBS, 100 U/mL penicillin and 100 μg/mL streptomycin. All cancer cell lines employed have been systematically characterized regarding their respective ABC transporter expression profile ([Sachs et al., 2019]).
(§3) Cytotoxic activity of test compounds was analyzed after 48 h using the CellTiter-Glo Luminescent Cell Viability Assay published previously ([Weber et al., 2017]) in 384-well plates with the following cell densities: A549, MCF-7/MX: 2 × 10^3 cells/well; HCT-15: 3 × 10^3 cells/well; H69AR: 5 × 10^3 cells/well. Pipetting was conducted with the CyBi-Well 96-channel simultaneous pipettor (Analytik Jena AG, Jena, Germany). For generation of dose-response curves and calculation of IC50 values, the four-parameter logistic model was applied.
On the technique in general: ATP-based viability assays read luminescence as a measure of living cells.

For data set [3], the target named is T2, P-gp (Homo sapiens, UniProt P08183).
T2 construct: endogenous in cells; host or cells: HCT-15 human colon adenocarcinoma cells
T2 sequence (P08183 whole entry): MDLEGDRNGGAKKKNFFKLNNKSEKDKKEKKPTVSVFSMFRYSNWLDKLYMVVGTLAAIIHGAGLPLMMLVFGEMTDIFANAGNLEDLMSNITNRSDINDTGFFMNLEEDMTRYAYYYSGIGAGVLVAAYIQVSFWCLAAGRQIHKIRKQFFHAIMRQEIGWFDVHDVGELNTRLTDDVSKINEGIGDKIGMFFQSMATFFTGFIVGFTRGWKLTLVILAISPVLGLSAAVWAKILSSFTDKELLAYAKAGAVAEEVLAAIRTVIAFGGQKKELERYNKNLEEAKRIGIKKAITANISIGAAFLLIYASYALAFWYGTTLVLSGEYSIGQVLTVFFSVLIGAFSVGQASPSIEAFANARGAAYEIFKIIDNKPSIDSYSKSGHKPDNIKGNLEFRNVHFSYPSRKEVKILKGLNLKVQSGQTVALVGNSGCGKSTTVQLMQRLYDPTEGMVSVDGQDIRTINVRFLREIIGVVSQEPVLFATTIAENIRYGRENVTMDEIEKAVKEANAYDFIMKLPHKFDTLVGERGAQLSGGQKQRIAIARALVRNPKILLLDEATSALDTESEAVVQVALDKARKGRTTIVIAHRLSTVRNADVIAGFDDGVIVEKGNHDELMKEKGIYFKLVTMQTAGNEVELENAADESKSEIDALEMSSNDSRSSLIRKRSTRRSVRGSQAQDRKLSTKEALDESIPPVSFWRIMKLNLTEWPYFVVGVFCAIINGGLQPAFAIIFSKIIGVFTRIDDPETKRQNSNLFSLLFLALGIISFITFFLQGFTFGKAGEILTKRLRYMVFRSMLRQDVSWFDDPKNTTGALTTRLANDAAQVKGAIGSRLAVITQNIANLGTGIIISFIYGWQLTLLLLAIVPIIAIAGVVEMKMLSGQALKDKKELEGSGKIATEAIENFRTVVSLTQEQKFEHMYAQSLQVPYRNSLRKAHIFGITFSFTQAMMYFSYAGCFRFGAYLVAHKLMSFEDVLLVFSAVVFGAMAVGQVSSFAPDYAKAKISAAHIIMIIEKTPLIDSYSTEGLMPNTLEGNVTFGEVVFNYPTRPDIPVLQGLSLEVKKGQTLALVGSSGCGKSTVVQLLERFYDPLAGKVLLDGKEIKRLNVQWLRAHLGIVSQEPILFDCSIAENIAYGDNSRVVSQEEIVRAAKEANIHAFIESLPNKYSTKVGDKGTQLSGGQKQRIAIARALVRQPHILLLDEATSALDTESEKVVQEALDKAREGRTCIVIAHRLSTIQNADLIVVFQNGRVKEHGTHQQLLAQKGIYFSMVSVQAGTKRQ
Nature of the data set: P-gp transport assay (calcein-AM) in HCT-15 cells. Type of data set: cell-based. As to the method: The transport of calcein-AM by P-gp and its modulation by test compounds was analyzed in the P-gp-expressing HCT-15 cell line. 5 × 10^4 cells were seeded in black 96-well plates and incubated at 37°C and 5% CO2 for 24 h. The culture medium was removed and replaced by Hank’s balanced salt solution supplemented with 10 mM HEPES. Test compounds, 2.5 μM PSC833 (positive control) or 0.5% DMSO (negative control) were added in triplicates and incubated for 30 min at 37°C and 5% CO2. The substrate calcein-AM was added (final concentration 0.5 μM) and the fluorescence (excitation 485 nm, emission 520 nm) was measured over 3 h with the Infinite m1000 pro microplate reader (Tecan Group AG, Männedorf, Switzerland) at 37°C. The transport activity of P-gp was analyzed by determining the slope of the linear part of the fluorescence-time curve (0–30 min) using linear regression. Normalization of the data to PSC833 (100% inhibition) and DMSO (0% inhibition) was performed.

Data set [4] concerns H69AR cells. Nature of the data set: CellTiter-Glo cell viability assay (cytotoxicity), H69AR. It is filed as cell-based. The following applies: Homo sapiens, 48 h, MRP1-expressing, mean ± SEM. As for the experimental part:
as §2, §3

For data set [5], the system named is HCT-15 cells. Nature of the data set: CellTiter-Glo cell viability assay (cytotoxicity), HCT-15. Particulars: Homo sapiens, 48 h, P-gp expressing, mean ± SEM. It is filed as cell-based. As to the method: as §2, §3
The subject of data set [6] is MCF-7/MX cells. The data set is described as follows: CellTiter-Glo cell viability assay (cytotoxicity), MCF-7/MX. Type of data set: cell-based. Particulars: Homo sapiens, MCF7/MX; 48 h, BCRP-expressing, mean ± SEM. As to the method: as §2, §3
In data set [7] the target is T1, Pdr5. Nature of the data set: Pdr5 transport assay (R6G) in plasma membrane preparations. Type of data set: biochemical. Set-up: R6G transport activity of Pdr5 WT inhibited to (initial screen): dose or concentration left out as unconfirmed. Particulars: for R6G transport activity of Pdr5 WT inhibited to (initial screen): relative to Pdr5 WT without compound. As to the method: as §1
Active transport of R6G was measured according to the protocol developed by [Kolaczkowski et al. (1996)], using a Tecan Infinite 200 pro reader (Tecan Group AG, Männedorf, Switzerland). 6 μg of the isolated PM containing Pdr5 were resuspended in 200 μl of the transport buffer (50 mM HEPES, pH 7.0, 5 mM MgCl2, 10 mM NaN3, and 150 nM R6G) and incubated in a black 96-well plate at 30°C. 5 μl of the test compound were added at the indicated concentrations. Active transport was initiated by the addition of 10 μl 200 mM ATP and fluorescence intensity was recorded in 15 s-intervals for 20 min (excitation wavelength at 524 nm, emission wavelength at 558 nm, number of flashes 30, integration time 2000 μs). IC50 determination was performed with a serial dilution of the test compounds.

The target of data set [8] is T3, BCRP (Homo sapiens, UniProt Q9UNQ0).
T3 construct: endogenous in cells; host or cells: MCF-7/MX human breast adenocarcinoma cells (mitoxantrone-selected)
T3 sequence (Q9UNQ0 1-655): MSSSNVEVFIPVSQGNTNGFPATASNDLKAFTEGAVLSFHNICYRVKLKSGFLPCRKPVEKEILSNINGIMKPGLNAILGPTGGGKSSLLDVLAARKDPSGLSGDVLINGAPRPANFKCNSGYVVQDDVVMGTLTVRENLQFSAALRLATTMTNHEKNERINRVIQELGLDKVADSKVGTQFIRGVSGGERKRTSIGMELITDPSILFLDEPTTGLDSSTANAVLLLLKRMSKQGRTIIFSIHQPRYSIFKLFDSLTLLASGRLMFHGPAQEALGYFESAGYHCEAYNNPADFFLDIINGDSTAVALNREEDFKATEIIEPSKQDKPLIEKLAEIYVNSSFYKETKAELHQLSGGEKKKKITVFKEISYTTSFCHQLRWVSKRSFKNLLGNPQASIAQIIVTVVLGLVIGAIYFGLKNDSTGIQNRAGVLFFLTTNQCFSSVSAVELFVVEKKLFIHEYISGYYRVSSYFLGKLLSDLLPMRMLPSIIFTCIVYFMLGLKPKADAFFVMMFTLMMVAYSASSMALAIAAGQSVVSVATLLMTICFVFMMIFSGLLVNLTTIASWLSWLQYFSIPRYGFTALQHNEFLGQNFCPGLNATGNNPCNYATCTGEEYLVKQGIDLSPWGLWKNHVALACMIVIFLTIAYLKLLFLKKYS
Nature of the data set: BCRP transport assay (Hoechst 33342) in MCF-7/MX cells. Type of data set: cell-based. As for the experimental part: Breast cancer resistance protein transport activity was determined in the BCRP-expressing MCF-7/MX cell line. Hoechst 33342 was applied as transporter substrate and 1 μM Ko143 as positive control or 0.5% DMSO as negative control and the assay was performed according to the P-gp assay. Fluorescence was measured at an excitation wavelength of 355 nm and emission wavelength of 460 nm. The transport activity of BCRP was analyzed by determining the plateau of the fluorescence-time curve by using non-linear regression (one-phase exponential fit). Normalization of the data to Ko143 (100% inhibition) and DMSO (0% inhibition) was performed.

[9] abbreviates: human, P-gp-expressing HCT-15 cells, probe calcein-AM (0.5 μM), normalized to 2.5 μM PSC833 (100%) and DMSO (0%), read-out: Relative inhibition of P-gp.

A word on the IC50: it is the point on the concentration scale where inhibition reaches its midpoint. As to `COc1cc(O)c2c(c1)C[C@@H](C)OC2=O` [6-Methoxymellein (3), 6-methoxymellein], the figures for the “ATPase activity of Pdr5 WT inhibited to (initial screen)” value (from here on “ATPase activity of Pdr5 WT inhibited”) in data set [1] (listed as 3) and in data set [1] (listed as 6-methoxymellein (3)) were “nearly no effect” and “no inhibitory effect”, respectively. Also, the IC50 in data set [2], in data set [4], in data set [5] and in data set [6] was above 100 µM throughout. Moreover, in data set [3], the “Inhibition of P-gp (in words)” value is “did not differ significantly from those of derivative 14”. Further, the results for the “R6G transport activity of Pdr5 WT inhibited to (initial screen)” value in data set [7] (listed as 3) and in data set [7] (listed as 6-methoxymellein (3)) were “no effect” and “did not interfere with Pdr5-mediated R6G transport”, respectively. In data set [8], the “Inhibition of BCRP (in words)” value is on record as “no inhibitory activity could be observed”.

By inhibition is commonly meant the drop in the measured response relative to a control, in per cent. For `COc1cc(O)c2c(c1)C[C@H](CCO[Si](C)(C)C(C)(C)C)OC2=O` [(R)-19], the IC50 is 47.5 ± 3.2 µM in data set [2]; above 100 µM in data set [4]; 57.1 ± 7.5 µM in data set [5]; 28.1 ± 0.7 µM in data set [6]; 26 ± 3.5 µM in data set [7]. Moreover, the inhibition at 20 μM in data set [3] (setting [9]) was above 20%. The “R6G transport activity of Pdr5 WT inhibited to (initial screen)” value in data set [7] was “inhibit the transport of R6G completely; also recorded: inhibit the transport activity of Pdr5 WT completely”.

In the case of `COc1cc(O)c2c(c1)C[C@H](CCO)OC2=O` [(R)-19a], the “ATPase activity of Pdr5 WT inhibited” value in data set [1] is reported as “nearly no effect; also recorded: no inhibition of the ATPase activity was observed”. Besides, the IC50 in data set [2], in data set [4], in data set [5] and in data set [6] was above 100 µM each time. The “Inhibition of BCRP (in words)” value in data set [8] is recorded as “completely abolished inhibitory ability”.

For the compound `COc1cc(O)c2c(c1)C[C@@H](CCO[Si](C)(C)C(C)(C)C)OC2=O` [(S)-19], the IC50 is 42 ± 3.9 µM in data set [2]; 86.8 ± 9.2 µM in data set [4]; above 100 µM in data set [5]; 33.5 ± 7.5 µM in data set [6]; 5.3 ± 0.6 µM in data set [7]. For the same compound, the inhibition at 10 μM in data set [3] (human, P-gp-expressing HCT-15 cells, probe calcein-AM (0.5 μM), 10 μM, normalized to 2.5 μM PSC833 (100%) and DMSO (0%), read-out: Relative inhibition of P-gp) was 37.1 ± 2.9%. In addition, the inhibition at 20 μM in data set [3] (setting [9]) is above 20%. Also, the “R6G transport activity of Pdr5 WT inhibited to (initial screen)” value in data set [7] was “inhibit the transport of R6G completely; also recorded: inhibit the transport activity of Pdr5 WT completely”.

As for `COc1cc(O)c2c(c1)C[C@@H](CCO)OC2=O` [(S)-19a], the “ATPase activity of Pdr5 WT inhibited” value in data set [1] is “nearly no effect; also recorded: no inhibition of the ATPase activity was observed”. Moreover, the IC50 was above 100 µM in data set [2], above 100 µM in data set [4], above 100 µM in data set [5] and 89.8 ± 4.9 µM in data set [6]. The “Inhibition of BCRP (in words)” value in data set [8] is “completely abolished inhibitory ability”.

Turning to `COc1cc2c(c(OC)c1)C(=O)OCC2` [Compound 14a], the IC50 in data set [2], in data set [4], in data set [5] and in data set [6] was above 100 µM in each case. For the same compound, in data set [3] (different concentrations, normalized to PSC833), the “Relative inhibition of P-gp, span over the tested concentrations” value was “up to 10%”. Also, in data set [8], the “Inhibition of BCRP (in words)” value is listed as “did not inhibit BCRP”.

`COc1cc(O)c2c(=O)oc3ccccc3c2c1` [Compound 21]: the “ATPase activity of Pdr5 WT inhibited” value in data set [1] is 50% and 54%. Further, the IC50 in data set [2], in data set [4], in data set [5] and in data set [6] was above 50 µM throughout. The “Relative inhibition rate of P-gp” value in data set [3] (highest concentration used) is reported as 20.0 ± 1.2%.
